Measurements taken from BindingDB's records for patent US11365204 (Union therapeutics A/S, 2022).

Target: Tumor necrosis factor (Homo sapiens, UniProt P01375)
Assay: TNF-alpha RELEASE
Method: Human peripheral blood mononuclear cells (PBMC) were isolated from fresh buffy coats by density centrifugation using lymphoprep tubes (Medinor). Frozen PBMC's were washed in serum free assay buffer (RPMI1640 with 25 mM HEPES, 1% pen/strep, […], 0.5% human serum albumin) and living cells counted. Lipopolysaccharide (1 microg/ml; SIGMA) was added to the cells which were then transferred to 384 well tissue culture plates (5×105 c/ml) containing titrated test compounds. The cells were incubated for 18 hours at 37° C. in serum free assay buffer and the level of TNFalpha in the supernatant was quantitated by AlphaLISA (PerkinElmer) by measuring fluorescence intensity at 615 nm.Results were expressed as IC50 values calculated from inhibition curves using as controls the secretion in LPS stimulated wells and the secretion in cells incubated with 10 microM of a PDE4 inhibitor reference compound.

Sequence of Tumor necrosis factor (P01375 whole entry): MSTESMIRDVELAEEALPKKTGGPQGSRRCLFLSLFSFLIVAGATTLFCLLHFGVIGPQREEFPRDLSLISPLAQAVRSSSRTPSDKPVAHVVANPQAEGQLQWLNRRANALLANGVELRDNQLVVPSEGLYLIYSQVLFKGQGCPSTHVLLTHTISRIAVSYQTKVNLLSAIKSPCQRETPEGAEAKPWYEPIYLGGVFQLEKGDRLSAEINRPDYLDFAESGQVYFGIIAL

Row | SMILES | IC50
1 | CC(=O)N1CC[C@H](Nc2nc(N3CC(OC(=O)c4cscn4)C3)nc3c2[S@+]([O-])CC3)C1 [US11365204, Example 73] | 300 nM
2 | CC(=O)N1CC[C@H](Nc2nc(N3CC(OC(=O)c4cnsc4)C3)nc3c2[S@+]([O-])CC3)C1 [US11365204, Example 72] | < 100 nM
3 | CC(=O)N1CCC(Nc2nc(N3CC(OC(=O)c4cscn4)C3)nc3c2[S+]([O-])CC3)CC1 (centres undefined) [US11365204, Example 76] | > 500 nM
4 | CC(=O)N1CC[C@H](Nc2nc(N3CC(OC(=O)C4CCOCC4)C3)nc3c2[S@+]([O-])CC3)C1 [US11365204, Example 74] | 300 nM
